The results in this text go back to patent US20250102494A1, “COMPOSITION FOR PREDICTING OXALIPLATIN DRUG EFFICACY, AND USE THEREOF” (SAMSUNG LIFE PUBLIC WELFARE FOUNDATION, priority 2022, published 2025).

Structures are written as SMILES.

Assay [1] relates to Sensitive Cell Line (HCT116, RKO, SW620, LS147T). Description: Average oxaliplatin AUC over sensitive colorectal cancer cell lines. It counts as cell-based. As to the method:
(§1) Four hours after the medium change, the cells were treated with oxaliplatin, 5-FU, Irinotecan, and folinic acid. Five days after drug treatment, intracellular ATP expression was determined using the ATPlite assay kit (PerkinElmer), and the data were expressed in terms of cell viability, IC50, and AUC.
(§2) As the standard for confirming that cells are sensitive to the drug, the response of the cells to the drug was assumed to be 100%, and the luminescence value of surviving cells after drug treatment was analyzed and compared with the quantified drug response value.
(§3) Based on the assumption that the factor that increases the resistance of the organoids to oxaliplatin is an activator or inhibitor that changes the phenotype, the organoids prepared by excluding some or all of activators and inhibitors as shown in Table 4 below were treated with oxaliplatin.
(§4) In order to confirm reduced resistance to oxaliplatin, ECT116, RKO, SW620, and LS147T cell lines, which are highly sensitive to oxaliplatin, and HT29, HTC15, CoLo205, and Lovo cell lines, which are low sensitive to oxaliplatin, were used.
(§5) When the above results were combined with the results shown by cell lines with high sensitivity to oxaliplatin and cell lines with low sensitivity to oxaliplatin, the result data shown in FIGS. 23 and 24 and Tables 5 to 7 below were obtained.

The test system of assay [2] is Resistant Cell Line (HT29, HTC15, CoLo205, Lovo). In words: Average oxaliplatin AUC over resistant colorectal cancer cell lines. It counts as cell-based. The procedure: as §1, §2, §3, §4, §5

In the case of `O=C1[O][Pt]2([NH][C@@H]3CCCC[C@H]3[NH]2)[O]C1=O` [oxaliplatin], the EX1_AUC in assay [1] (average over sensitive cell lines, Ex1 medium (inhibitors and activators)) turned out to be 396.08; in assay [2] (average over resistant cell lines, Ex1 medium), 420.02. In addition, the EX2_AUC in assay [1] (average over sensitive cell lines, Ex2 medium (no inhibitors, no activators)) was found to be 347.78; in assay [2] (average over resistant cell lines, Ex2 medium), 420.86. Moreover, the normal_AUC came to 274.55 in assay [1] (average over sensitive cell lines, normal cell-line culture) and 391.80 in assay [2] (average over resistant cell lines, normal cell-line culture). In addition, the “sensitivity to oxaliplatin, Ex2 compared with Ex1” value in assay [1] (cell lines with high sensitivity, FIG. 23) is “higher in Ex2 without both inhibitors and activators than in Ex1”; in assay [2] (cell lines with low sensitivity, FIG. 24) it was “no difference in sensitivity to oxaliplatin between Ex1 and Ex2”. Besides, the “EX1 − EX2 (AUC difference)” value in assay [1] (sensitive cell lines) is recorded as 48.30; in assay [2] (resistant cell lines), −0.85.
